Test results from patent US10287301B2 (Achillion Pharmaceuticals, Inc., priority 2015, dated 2019).
Where two headings read alike, the source gives them in different places.

Biological target: Human Factor D (Homo sapiens (Human), UniProt P00746)
Test: Human Factor D Assay
Type: biochemical
How it was run: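 Factor D (from human serum) 80 nM final + cpd, 5 min RT, 50 mM Tris/1M NaCl pH 7.5; add Z-L-Lys-SBzl 100 μM and DTNB 100 μM final. IC50 by nonlinear fit of rates vs [cpd].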

[1] = Table 3, Human Factor D 80 nM, substrate Z-L-Lys-SBzl, read-out: IC50 (Stars)

Human Factor D, sequence (P00746 26-253): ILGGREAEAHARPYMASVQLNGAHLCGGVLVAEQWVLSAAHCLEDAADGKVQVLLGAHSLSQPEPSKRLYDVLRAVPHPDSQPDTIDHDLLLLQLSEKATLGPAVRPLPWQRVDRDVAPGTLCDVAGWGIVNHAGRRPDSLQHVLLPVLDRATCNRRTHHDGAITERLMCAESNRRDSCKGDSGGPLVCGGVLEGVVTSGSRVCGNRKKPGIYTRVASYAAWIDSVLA

Structure (SMILES)	IC50 [1]	IC50
Cc1ncc(-c2ccc3c(c2)c(C(C)F)nn3CC(=O)N2C[C@H](F)C[C@H]2C(=O)Nc2cccc(Br)n2)cn1 (stereo partly drawn) [Compound 456, (2S,4R)—N-(6-Bromopyridin-2-yl)-4-fluoro-1-(2-(3-(1-fluoroethyl)-5-(2-methylpyrimidin-5-yl)-1H-indazol-1-yl)acetyl)pyrrolidine-2-carboxamide]	< 1000 nM	–
COc1ncc(-c2ccc3c(c2)c(C(C)=O)nn3CC(=O)N2[C@@H]3C[C@@H]3C[C@H]2C(=O)Nc2ccc(F)c(Br)n2)cn1 [Compound 457, (1R,3S,5R)-2-(2-(3-Acetyl-5-(2-methoxypyrimidin-5-yl)-1H-indazol-1-yl)acetyl)-N-(6-bromo-5-fluoropyridin-2-yl)-2-azabicyclo[3.1.0]hexane-3-carboxamide]	< 1000 nM	–
CC(=O)c1nn(CC(=O)N2[C@@H]3C[C@@H]3C[C@H]2C(=O)Nc2ccc(F)c(Br)n2)c2ccc(-c3cnc(N)nc3)cc12 [Compound 458, (1R,3S,5R)-2-(2-(3-Acetyl-5-(2-aminopyrimidin-5-yl)-1H-indazol-1-yl)acetyl)-N-(6-bromo-5-fluoropyridin-2-yl)-2-azabicyclo[3.1.0]hexane-3-carboxamide]	< 1000 nM	–
CC(=O)c1nn(CC(=O)N2C[C@H](F)C[C@H]2C(=O)NCC2CC2(Cl)Cl)c2ccc(-c3cnc(C)nc3)cc12 (stereo partly drawn) [Compound 459, (2S,4R)-1-(2-(3-acetyl-5-(2-methylpyrimidin-5-yl)-1H-indazol-1-yl)acetyl)-N-((2,2-dichlorocyclopropyl)methyl)-4-fluoropyrrolidine-2-carboxamide]	< 1000 nM	–
CC(=O)c1nn(CC(=O)N2C[C@H](F)C[C@H]2C(=O)NC2C[C@H]2c2ccccc2Cl)c2ccc(-c3cnc(C)nc3)cc12 (stereo partly drawn) [Compound 460, (2S,4R)-1-(2-(3-acetyl-5-(2-methylpyrimidin-5-yl)-1H-indazol-1-yl)acetyl)-N-((2S)-2-(2-chlorophenyl)cyclopropyl)-4-fluoropyrrolidine-2-carboxamide]	< 1000 nM	–
CC(=O)c1cn(CC(=O)N2C[C@H](F)C[C@H]2C(=O)NCCCCc2ccccc2)c2ccc(-c3cnc(C)nc3)cc12 [Compound 461, (2S,4R)-1-(2-(3-Acetyl-5-(2-methylpyrimidin-5-yl)-1H-indol-1-yl)acetyl)-4-fluoro-N-(4-phenylbutyl)pyrrolidine-2-carboxamide]	< 1000 nM	–
CC(=O)c1nn(CC(=O)N2CC3CC2(C(=O)Nc2cccc(Br)n2)C3)c2ccc(-c3cnc(C)nc3)cc12 [Compound 462, 2-(2-(3-acetyl-5-(2-Methylpyrimidin-5-yl)-1H-indazol-1-yl)acetyl)-N-(6-bromopyridin-2-yl)-2-azabicyclo[2.1.1]hexane-1-carboxamide]	< 1000 nM	–
CC(=O)c1nn(CC(=O)N2C[C@H](F)C[C@H]2C(=O)NC2CCCC(C)(C)C2)c2ccc(-c3cnc(C)nc3)cc12 (stereo partly drawn) [Compound 464, (2S,4R)-1-(2-(3-acetyl-5-(2-methylpyrimidin-5-yl)-1H-indazol-1-yl)acetyl)-N-(3,3-dimethylcyclohexyl)-4-fluoropyrrolidine-2-carboxamide]	< 1000 nM	–
CC(=O)c1nn(CC(=O)N2C[C@H](F)C[C@H]2C(=O)Nc2cccc(Br)n2)c2ccc(-c3cnc(C)cn3)cc12 [Compound 465, (2S,4R)-1-(2-(3-Acetyl-5-(5-methylpyrazin-2-yl)-1H-indazol-1-yl)acetyl)-N-(6-bromopyridin-2-yl)-4-fluoropyrrolidine-2-carboxamide]	< 1000 nM	–
CC(=O)c1nn(CC(=O)N2C[C@H](F)C[C@H]2C(=O)Nc2nc(Br)ccc2C)c2ccc(-c3cnc(C)cn3)cc12 [Compound 467, (2S,4R)-1-(2-(3-Acetyl-5-(5-methylpyrazin-2-yl)-1H-indazol-1-yl)acetyl)-N-(6-bromo-3-methylpyridin-2-yl)-4-fluoropyrrolidine-2-carboxamide]	< 1000 nM	–
CC(=O)c1nn(CC(=O)N2C[C@H](F)C[C@H]2C(=O)Nc2nc(Br)ccc2C)c2ccc(-c3ccnc(C)n3)cc12 [Compound 468, (2S,4R)-1-(2-(3-Acetyl-5-(2-methylpyrimidin-4-yl)-1H-indazol-1-yl)acetyl)-N-(6-bromo-3-methylpyridin-2-yl)-4-fluoropyrrolidine-2-carboxamide]	< 1000 nM	–
CC(=O)c1nn(CC(=O)N2C[C@H](F)C[C@H]2c2nc(-c3cccc(Br)n3)c[nH]2)c2ccc(-c3cnc(C)nc3)cc12 [Compound 469, 2-(3-acetyl-5-(2-Methylpyrimidin-5-yl)-1H-indazol-1-yl)-1-((2S,4R)-2-(4-(6-bromopyridin-2-yl)-1H-imidazol-2-yl)-4-fluoropyrrolidin-1-yl)ethan-1-one]	< 1000 nM	–
Cc1cccc(NC(=O)[C@@H]2[C@H]3CC[C@H](C3)N2C(=O)Cn2cc(C(N)=O)c3cc(-c4cnc(C)nc4)ccc32)n1 [Compound 473, 1-(2-((1R,3S,4S)-3-(6-Methylpyridin-2-ylcarbamoyl)-2-azabicyclo[2.2.1]heptan-2-yl)-2-oxoethyl)-5-(2-methylpyrimidin-5-yl)-1H-indole-3-carboxamide]	> 10000 nM	–
CC(=O)c1nn(CC(=O)N2C[C@H](F)C[C@H]2C(=O)NCC(F)=C(C)C)c2ccc(-c3cnc(C)nc3)cc12 [Compound 474, (2S,4R)-1-(2-(3-acetyl-5-(2-methylpyrimidin-5-yl)-1H-indazol-1-yl)acetyl)-4-fluoro-N-(2-fluoro-3-methylbut-2-en-1-yl)pyrrolidine-2-carboxamide]	< 1000 nM	–
CC(=O)c1nn(CC(=O)N2C3CC[C@@H](C3)[C@H]2C(=O)Nc2cccc(Br)n2)c2ccc(-c3cnc(C)nc3)cc12 [Compound 475, (3S,4S)-2-(2-(3-Acetyl-5-(2-methylpyrimidin-5-yl)-1H-indazol-1-yl)acetyl)-N-(6-bromopyridin-2-yl)-2-azabicyclo[2.2.1]heptane-3-carboxamide]	< 1000 nM	–
CC(=O)c1nn(CC(=O)N2C[C@H](F)C[C@H]2C(=O)Nc2ccn(-c3ccc(F)cn3)n2)c2ccc(-c3cnc(C)nc3)cc12 [Compound 479, (2S,4R)-1-(2-(3-acetyl-5-(2-Methylpyrimidin-5-yl)-1H-indazol-1-yl)acetyl)-4-fluoro-N-(1-(5-fluoropyridin-2-yl)-1H-pyrazol-3-yl)pyrrolidine-2-carboxamide]	< 1000 nM	–
CC(=O)c1nn(CC(=O)N2[C@H](C(=O)Nc3cccc(Br)n3)C[C@@]3(C)C[C@@H]23)c2ccc(-c3cnc(N)nc3)cc12 [Compound 480, (1R,3S,5R)-2-(2-(3-Acetyl-5-(2-aminopyrimidin-5-yl)-1H-indazol-1-yl)acetyl)-N-(6-bromopyridin-2-yl)-5-methyl-2-azabicyclo[3.1.0]hexane-3-carboxamide]	< 1000 nM	–
CC(=O)c1cn(CC(=O)N2CC[C@H]2C(=O)Nc2cccc(C)n2)c2ccc(-c3cnc(C)nc3)cc12 [Compound 481, (S)-1-(2-(3-a=Acetyl-5-(2-methylpyrimidin-5-yl)-1H-indol-1-yl)acetyl)-N-(6-methylpyridin-2-yl)azetidine-2-carboxamide]	> 10000 nM	–
CC(=O)c1nn(CC(=O)N2[C@@H]3C[C@@H]3C[C@H]2C(=O)NCC(F)=C(C)C)c2ccc(-c3cnc(C)nc3)cc12 [Compound 482, (1R,3S,5R)-2-(2-(3-acetyl-5-(2-methylpyrimidin-5-yl)-1H-indazol-1-yl)acetyl)-N-(2-fluoro-3-methylbut-2-en-1-yl)-2-azabicyclo[3.1.0] hexane-3-carboxamide]	< 1000 nM	–
CC(=O)c1nn(CC(=O)N2C[C@H](F)C[C@H]2C(=O)NCc2cccc(Br)n2)c2ccc(-c3cnc(C)nc3)cc12 [Compound 483, (2S,4R)-1-(2-(3-Acetyl-5-(2-methylpyrimidin-5-yl)-1H-indazol-1-yl)acetyl)-N-((6-bromopyridin-2-yl)methyl)-4-fluoropyrrolidine-2-carboxamide]	< 1000 nM	–
COc1cc(Br)nc(NC(=O)[C@@H]2C[C@@]3(C)C[C@H]3N2C(=O)Cn2nc(C(C)=O)c3cc(-c4cnc(C)nc4)ccc32)c1 [Compound 484, (1R,3S,5R)-2-(2-(3-Acetyl-5-(2-methylpyrimidin-5-yl)-1H-indazol-1-yl)acetyl)-N-(6-bromo-4-methoxypyridin-2-yl)-5-methyl-2-azabicyclo[3.1.0]hexane-3-carboxamide]	< 1000 nM	–
CC(=O)c1nn(CC(=O)N2[C@H](C(=O)Nc3nc(Br)ccc3C)C[C@@]3(C)C[C@@H]23)c2ccc(-c3cnc(C)nc3)cc12 [Compound 485, (1R,3S,5R)-2-(2-(3-Acetyl-5-(2-methylpyrimidin-5-yl)-1H-indazol-1-yl)acetyl)-N-(6-bromo-3-methylpyridin-2-yl)-5-methyl-2-azabicyclo[3.1.0]hexane-3-carboxamide]	< 1000 nM	–
COc1ncc(-c2ccc3c(c2)c(C(C)=O)nn3CC(=O)N2[C@H](C(=O)Nc3cncc(Br)n3)C[C@@]3(C)C[C@@H]23)cn1 [Compound 486]	< 1000 nM	–
CC(=O)c1nn(CC(=O)N2C[C@H]3C[C@H]3[C@H]2C(=O)Nc2nc(Br)ccc2C)c2ccc(-c3cnc(C)nc3)cc12 [Compound 488, (1R,2S,5S)-3-(2-(3-Acetyl-5-(2-methylpyrimidin-5-yl)-1H-indazol-1-yl)acetyl)-N-(6-bromo-3-methylpyridin-2-yl)-3-azabicyclo[3.1.0]hexane-2-carboxamide]	< 1000 nM	–
Cc1cccc(NC(=O)[C@@H]2[C@H]3CC[C@H](C3)N2C(=O)Cn2cc(C(N)=O)c3cc(-c4ccc5ccccc5c4)ccc32)n1 [Compound 489, 1-(2-((1R,3S,4S)-3-((6-Methylpyridin-2-yl)carbamoyl)-2-azabicyclo[2.2.1]heptan-2-yl)-2-oxoethyl)-5-(naphthalen-2-yl)-1H-indole-3-carboxamide]	> 10000 nM	–
CC(=O)c1nn(CC(=O)N2[C@@H]3CC[C@@H](C3)[C@H]2C(=O)Nc2cccc(Br)n2)c2ccc(-c3cnc(C)nc3)cc12 [Compound 491, (1R,3S,4S)-2-(2-(3-acetyl-5-(2-methylpyrimidin-5-yl)-1H-indazol-1-yl)acetyl)-N-(6-bromopyridin-2-yl)-2-azabicyclo[2.2.1] heptane-3-carboxamide]	–	< 1000 nM
